# Data: publication PMC4129416, “YLT192, a Novel, Orally Active Bioavailable Inhibitor of VEGFR2 Signaling with Potent Antiangiogenic Activity and Antitumor Efficacy in Preclinical Models” (Scientific Reports, 2014)
# Columns and labels:
# EGFR = molecular target: T1, EGFR (Homo sapiens, UniProt P00533); experiment: Radiometric kinase assay (Millipore Kinase Profile Service); format: biochemical; settings: means ± SD, two independent experiments, read-out: inhibition rate at 1 μM (%)
# T1 construct: purchased Millipore (Kinase Profile Service, UK)
# Procedure: (§1) YLT192 was designed and synthesized in the State Key Laboratory of Biotherapy, Sichuan University (Sichuan, China). Its structural formula and synthesis route was shown in Fig. 1A and Supplementary Figure S1, respectively. The kinase inhibitory activity of YLT192 was measured by the use of radiometric assays provided by Kinase Profile Service (Millipore, UK). The effects of YLT192 on kinase activity were detected using the scintillation proximity assay method at an enzymatic level. […] In addition, the inhibitory activity of YLT192 was examined against platelet-derived growth factor receptor (PDGFR)-related kinases because of their structural similarity to the VEGFR2. […] Moreover, excellent selectivity for VEGFR2 was evident compared with a range of unrelated tyrosine and serine/threonine kinases, including fibroblast growth factor receptor 3, polo-like kinase 1, aurora-A, Axl, MET, protein kinase A, c-RAF etc.
# CDK2/cyclinE = molecular target: T2, CDK2/cyclinE (Homo sapiens, UniProt P24941); experiment: as above; format: biochemical; settings: means ± SD, two independent experiments, read-out: inhibition rate at 1 μM (%)
# T2 construct: purchased Millipore (Kinase Profile Service, UK)
# Procedure: as §1
# FGFR2 = molecular target: T3, FGFR2 (Homo sapiens, UniProt P21802); experiment: as above; format: biochemical; settings: means ± SD, two independent experiments, read-out: inhibition rate at 1 μM (%)
# T3 construct: purchased Millipore (Kinase Profile Service, UK)
# Procedure: as §1
# PDGFRβ = molecular target: T4, PDGFRβ (Homo sapiens, UniProt P09619); experiment: as above; format: biochemical; settings: means ± SD, two independent experiments, read-out: inhibition rate at 1 μM (%)
# T4 construct: purchased Millipore (Kinase Profile Service, UK)
# Procedure: as §1
# Aurora-B = molecular target: T5, Aurora-B (Homo sapiens, UniProt Q96GD4); experiment: as above; format: biochemical; settings: means ± SD, two independent experiments, read-out: inhibition rate at 1 μM (%)
# T5 construct: purchased Millipore (Kinase Profile Service, UK)
# Procedure: as §1
# JAK3 = molecular target: T6, JAK3 (Homo sapiens, UniProt P52333); experiment: as above; format: biochemical; settings: means ± SD, two independent experiments, read-out: inhibition rate at 1 μM (%)
# T6 construct: purchased Millipore (Kinase Profile Service, UK)
# Procedure: as §1
# PDGFRα = molecular target: T7, PDGFRα (Homo sapiens, UniProt P16234); experiment: as above; format: biochemical; settings: means ± SD, two independent experiments, read-out: inhibition rate at 1 μM (%)
# T7 construct: purchased Millipore (Kinase Profile Service, UK)
# Procedure: as §1
# Aurora-A = molecular target: T8, Aurora-A (Homo sapiens, UniProt O14965); experiment: as above; format: biochemical; settings: means ± SD, two independent experiments, read-out: inhibition rate at 1 μM (%)
# T8 construct: purchased Millipore (Kinase Profile Service, UK)
# Procedure: as §1
# IR = molecular target: T9, IR (Homo sapiens, UniProt P06213); experiment: as above; format: biochemical; settings: means ± SD, two independent experiments, read-out: inhibition rate at 1 μM (%)
# T9 construct: purchased Millipore (Kinase Profile Service, UK)
# Procedure: as §1
# FGFR1 = molecular target: T10, FGFR1 (Homo sapiens, UniProt P11362); experiment: as above; format: biochemical; settings: means ± SD, two independent experiments, read-out: inhibition rate at 1 μM (%)
# T10 construct: purchased Millipore (Kinase Profile Service, UK)
# Procedure: as §1
# Axl = molecular target: T11, Axl (Homo sapiens, UniProt P30530); experiment: as above; format: biochemical; settings: means ± SD, two independent experiments, read-out: inhibition rate at 1 μM (%)
# T11 construct: purchased Millipore (Kinase Profile Service, UK)
# Procedure: as §1
# LCK = molecular target: T12, LCK (Homo sapiens, UniProt P06239); experiment: as above; format: biochemical; settings: means ± SD, two independent experiments, read-out: inhibition rate at 1 μM (%)
# T12 construct: purchased Millipore (Kinase Profile Service, UK)
# Procedure: as §1
# c-RAF = molecular target: T13, c-RAF (Homo sapiens, UniProt P04049, Y340D/Y341D); experiment: as above; format: biochemical; settings: means ± SD, two independent experiments, read-out: inhibition rate at 1 μM (%)
# T13 construct: purchased Millipore (Kinase Profile Service, UK)
# Procedure: as §1
# ALK = molecular target: T14, ALK (Homo sapiens, UniProt Q9UM73); experiment: as above; format: biochemical; settings: means ± SD, two independent experiments, read-out: inhibition rate at 1 μM (%)
# T14 construct: purchased Millipore (Kinase Profile Service, UK)
# Procedure: as §1
# PKA = molecular target: T15, PKA (Homo sapiens, UniProt P17612); experiment: as above; format: biochemical; settings: means ± SD, two independent experiments, read-out: inhibition rate at 1 μM (%)
# T15 construct: purchased Millipore (Kinase Profile Service, UK)
# Procedure: as §1
# GSK3β = molecular target: T16, GSK3β (Homo sapiens, UniProt P49841); experiment: as above; format: biochemical; settings: means ± SD, two independent experiments, read-out: inhibition rate at 1 μM (%)
# T16 construct: purchased Millipore (Kinase Profile Service, UK)
# Procedure: as §1
# [1] = system: alginate beads containing CT26 tumor cells; experiment: Alginate-encapsulated tumor cell assay; format: in vivo, mice; settings: 100 mg/kg oral once daily, 14 days, vs vehicle
# Procedure: Figure 3 YLT192 inhibited angiogenesis in vivo. (A) Fluorescent images of 30 hpf zebrafish treated with vehicle or concentrations of YLT192. ISV growth was inhibited by YLT192. One representative experiment of three is shown. Data are means ± SEM (n = 10 per group), *P < 0.05, **P < 0.01. Scale bars represent 100 μm. […] Frozen sections of HCT116 tumors were tested by immunohistochemistry analysis with anti-CD31 antibody. Representative images of the tumor vasculature from vehicle and YLT192 treated mice were shown. The fields were averaged in each tumor, and the averages for each animal were used to give the final mean ± SD (n = 6 mice per group). *P < 0.05, **P < 0.01. Scale bars represent 100 μm. […] Alginate beads containing 5 × 10^4 CT26 cells were implanted s.c. into the backs of mice. Mice were then orally treated with YLT192 or vehicle once daily. Beads were surgically removed 14 days later and FITC-dextran was quantified. […] Data are means ± SD (n = 6 mice per group), *P < 0.05, **P < 0.01. Scale bars represent 500 μm.
# To determine whether YLT192 could inhibit angiogenesis induced by tumor cells in vivo, we did the alginate-encapsulated tumor cell assay as described previously. […] The content of FITC-dextran in the beads was quantified as described previously.
# COLO-205 = experiment: Inhibition of tumor cell growth; format: cell-based; settings: COLO-205, human colorectal carcinoma; 48 hour treatment; means ± SD, n=3
# Source text: Data are means ± SD, n=3.
# cell line cell type IC50(μM) […]
# COLO-205 human colorectal carcinoma 23.0 ±1.5
# [2] = mouse, in vivo
# Procedure: All the HCT116 model mice were sacrificed after 24 days of treatment.
# During the treatment of human colorectal carcinoma HCT116 xenograft on nude mice, they were also observed every day to investigate the side effects and toxicities after YLT192's longer time administration. Finally, serum biochemistry, hematological analysis, organ coefficients and histological examinations of heart, liver, spleen, lung, and kidney were carried out after dissection. Serum chemistry and hematological analysis was carried out.
# in normal tissues. After the treatment of HCT116 xenograft, heart, liver, spleen, lung
# and kidney of the mice were isolated and stained with H&E (n=6 mice per group).
# Scale bars represent 50μm.
# (1 picture or pasted object on this page, not shown here)
# T12 sequence (P06239 whole entry): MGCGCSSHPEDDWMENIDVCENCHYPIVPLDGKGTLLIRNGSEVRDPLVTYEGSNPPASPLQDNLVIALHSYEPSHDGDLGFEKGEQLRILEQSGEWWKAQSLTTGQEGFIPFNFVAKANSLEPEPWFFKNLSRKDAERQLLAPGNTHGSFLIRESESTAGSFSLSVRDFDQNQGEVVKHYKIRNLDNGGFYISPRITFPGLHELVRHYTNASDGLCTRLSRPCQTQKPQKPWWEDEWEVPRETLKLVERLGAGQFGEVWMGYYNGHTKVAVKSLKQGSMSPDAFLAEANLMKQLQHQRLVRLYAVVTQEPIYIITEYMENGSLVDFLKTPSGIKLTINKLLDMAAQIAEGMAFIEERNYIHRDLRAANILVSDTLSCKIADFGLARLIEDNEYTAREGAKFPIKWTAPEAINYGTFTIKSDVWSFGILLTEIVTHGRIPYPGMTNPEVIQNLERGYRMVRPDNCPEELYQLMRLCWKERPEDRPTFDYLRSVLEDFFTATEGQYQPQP
# T6 sequence (P52333 whole entry): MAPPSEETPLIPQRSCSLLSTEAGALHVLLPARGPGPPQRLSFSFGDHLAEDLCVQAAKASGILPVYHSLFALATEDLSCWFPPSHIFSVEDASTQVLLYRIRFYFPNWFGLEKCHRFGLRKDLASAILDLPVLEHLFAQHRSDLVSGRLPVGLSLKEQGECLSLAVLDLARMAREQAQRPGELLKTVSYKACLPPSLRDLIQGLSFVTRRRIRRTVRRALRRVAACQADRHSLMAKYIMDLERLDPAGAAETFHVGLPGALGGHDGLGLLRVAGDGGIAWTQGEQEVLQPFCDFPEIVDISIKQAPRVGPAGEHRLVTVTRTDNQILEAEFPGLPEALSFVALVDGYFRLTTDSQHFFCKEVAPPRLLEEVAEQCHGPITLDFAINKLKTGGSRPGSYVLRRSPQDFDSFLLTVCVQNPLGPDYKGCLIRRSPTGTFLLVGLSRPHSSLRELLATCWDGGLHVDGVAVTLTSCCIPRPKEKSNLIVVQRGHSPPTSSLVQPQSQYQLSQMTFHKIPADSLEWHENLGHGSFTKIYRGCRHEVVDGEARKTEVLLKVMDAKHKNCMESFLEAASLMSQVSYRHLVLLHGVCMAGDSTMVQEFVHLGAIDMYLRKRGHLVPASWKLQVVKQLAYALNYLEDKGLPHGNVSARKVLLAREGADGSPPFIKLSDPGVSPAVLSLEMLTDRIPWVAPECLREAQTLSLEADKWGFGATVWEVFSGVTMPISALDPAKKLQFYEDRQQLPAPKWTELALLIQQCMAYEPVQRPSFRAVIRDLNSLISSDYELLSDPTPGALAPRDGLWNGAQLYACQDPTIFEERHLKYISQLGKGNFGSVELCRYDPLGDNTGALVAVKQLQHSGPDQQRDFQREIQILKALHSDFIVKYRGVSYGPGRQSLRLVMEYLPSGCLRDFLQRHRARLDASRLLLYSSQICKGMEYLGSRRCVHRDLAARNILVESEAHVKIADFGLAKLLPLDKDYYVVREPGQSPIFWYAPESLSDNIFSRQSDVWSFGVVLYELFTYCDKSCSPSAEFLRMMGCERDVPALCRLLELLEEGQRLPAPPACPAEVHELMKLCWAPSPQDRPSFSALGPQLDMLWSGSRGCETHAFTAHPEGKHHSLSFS
# T1 sequence (P00533 25-1210): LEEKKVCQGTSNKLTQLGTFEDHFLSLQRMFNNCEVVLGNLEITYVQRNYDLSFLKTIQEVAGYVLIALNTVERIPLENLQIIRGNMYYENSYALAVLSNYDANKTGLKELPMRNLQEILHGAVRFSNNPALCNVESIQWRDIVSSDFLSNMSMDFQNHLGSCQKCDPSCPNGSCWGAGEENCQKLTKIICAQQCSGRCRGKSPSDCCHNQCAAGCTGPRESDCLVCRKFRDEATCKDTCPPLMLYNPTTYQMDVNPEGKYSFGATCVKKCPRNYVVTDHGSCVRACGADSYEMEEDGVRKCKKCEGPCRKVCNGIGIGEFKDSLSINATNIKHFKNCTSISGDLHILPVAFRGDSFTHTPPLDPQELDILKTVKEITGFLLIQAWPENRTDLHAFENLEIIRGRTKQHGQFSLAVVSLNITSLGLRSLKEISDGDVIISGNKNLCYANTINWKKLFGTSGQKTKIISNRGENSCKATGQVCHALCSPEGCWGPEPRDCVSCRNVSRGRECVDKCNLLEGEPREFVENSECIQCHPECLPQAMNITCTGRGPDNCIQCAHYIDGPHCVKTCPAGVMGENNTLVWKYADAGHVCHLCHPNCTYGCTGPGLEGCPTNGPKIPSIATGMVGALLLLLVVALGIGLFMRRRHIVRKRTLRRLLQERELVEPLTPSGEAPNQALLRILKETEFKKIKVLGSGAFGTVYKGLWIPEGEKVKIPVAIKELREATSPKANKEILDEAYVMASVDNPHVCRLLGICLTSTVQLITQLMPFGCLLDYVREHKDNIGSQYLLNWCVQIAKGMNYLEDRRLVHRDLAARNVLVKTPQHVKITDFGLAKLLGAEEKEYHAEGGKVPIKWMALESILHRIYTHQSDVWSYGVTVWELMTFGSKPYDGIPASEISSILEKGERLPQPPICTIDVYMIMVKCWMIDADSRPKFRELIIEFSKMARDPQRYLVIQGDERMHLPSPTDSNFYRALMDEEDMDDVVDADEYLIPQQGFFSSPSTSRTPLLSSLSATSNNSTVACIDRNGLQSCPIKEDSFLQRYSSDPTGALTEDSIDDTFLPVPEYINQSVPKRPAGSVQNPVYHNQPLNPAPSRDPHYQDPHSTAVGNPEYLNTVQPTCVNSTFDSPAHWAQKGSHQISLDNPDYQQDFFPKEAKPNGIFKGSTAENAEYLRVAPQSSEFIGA
# T14 sequence (Q9UM73 19-1620): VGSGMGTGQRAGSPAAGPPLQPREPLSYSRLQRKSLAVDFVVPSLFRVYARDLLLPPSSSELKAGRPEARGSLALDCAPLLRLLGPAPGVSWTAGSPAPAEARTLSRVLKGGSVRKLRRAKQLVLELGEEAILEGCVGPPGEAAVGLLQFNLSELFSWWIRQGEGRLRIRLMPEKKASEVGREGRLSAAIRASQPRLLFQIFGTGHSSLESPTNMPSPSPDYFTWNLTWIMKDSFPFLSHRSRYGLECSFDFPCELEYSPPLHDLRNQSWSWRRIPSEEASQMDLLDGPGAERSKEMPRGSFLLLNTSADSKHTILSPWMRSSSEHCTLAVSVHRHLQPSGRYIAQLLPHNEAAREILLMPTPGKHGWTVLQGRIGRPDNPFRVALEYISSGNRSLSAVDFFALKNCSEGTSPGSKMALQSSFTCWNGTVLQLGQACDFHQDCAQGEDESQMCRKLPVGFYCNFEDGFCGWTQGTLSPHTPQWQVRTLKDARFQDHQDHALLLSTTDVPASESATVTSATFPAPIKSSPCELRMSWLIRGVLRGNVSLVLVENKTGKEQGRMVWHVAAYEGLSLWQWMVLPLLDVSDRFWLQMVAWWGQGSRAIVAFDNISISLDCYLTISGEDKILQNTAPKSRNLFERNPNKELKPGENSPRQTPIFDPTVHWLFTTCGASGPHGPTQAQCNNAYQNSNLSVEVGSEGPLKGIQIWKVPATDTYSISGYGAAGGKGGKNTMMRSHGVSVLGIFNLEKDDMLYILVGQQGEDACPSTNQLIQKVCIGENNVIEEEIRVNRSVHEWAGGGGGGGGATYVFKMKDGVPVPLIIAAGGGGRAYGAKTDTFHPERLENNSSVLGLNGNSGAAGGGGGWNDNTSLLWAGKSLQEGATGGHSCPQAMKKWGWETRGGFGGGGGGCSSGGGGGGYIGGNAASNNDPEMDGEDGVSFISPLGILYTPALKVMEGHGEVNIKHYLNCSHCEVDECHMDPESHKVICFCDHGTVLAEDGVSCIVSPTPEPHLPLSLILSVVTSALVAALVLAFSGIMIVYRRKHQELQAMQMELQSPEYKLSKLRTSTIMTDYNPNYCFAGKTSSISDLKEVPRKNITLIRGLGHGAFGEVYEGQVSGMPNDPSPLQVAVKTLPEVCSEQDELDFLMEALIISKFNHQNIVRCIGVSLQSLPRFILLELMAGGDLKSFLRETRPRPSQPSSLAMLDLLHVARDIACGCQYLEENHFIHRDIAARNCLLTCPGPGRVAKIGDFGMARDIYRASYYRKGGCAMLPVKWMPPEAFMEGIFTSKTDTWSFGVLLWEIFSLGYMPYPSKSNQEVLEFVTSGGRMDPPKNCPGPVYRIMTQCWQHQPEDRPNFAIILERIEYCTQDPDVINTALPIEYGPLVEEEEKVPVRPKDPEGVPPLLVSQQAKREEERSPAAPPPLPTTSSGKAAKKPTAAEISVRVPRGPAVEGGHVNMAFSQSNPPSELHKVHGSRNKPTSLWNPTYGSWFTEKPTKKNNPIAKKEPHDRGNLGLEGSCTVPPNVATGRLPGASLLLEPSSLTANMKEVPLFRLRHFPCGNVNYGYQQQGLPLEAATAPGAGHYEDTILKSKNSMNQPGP
# T8 sequence (O14965 whole entry): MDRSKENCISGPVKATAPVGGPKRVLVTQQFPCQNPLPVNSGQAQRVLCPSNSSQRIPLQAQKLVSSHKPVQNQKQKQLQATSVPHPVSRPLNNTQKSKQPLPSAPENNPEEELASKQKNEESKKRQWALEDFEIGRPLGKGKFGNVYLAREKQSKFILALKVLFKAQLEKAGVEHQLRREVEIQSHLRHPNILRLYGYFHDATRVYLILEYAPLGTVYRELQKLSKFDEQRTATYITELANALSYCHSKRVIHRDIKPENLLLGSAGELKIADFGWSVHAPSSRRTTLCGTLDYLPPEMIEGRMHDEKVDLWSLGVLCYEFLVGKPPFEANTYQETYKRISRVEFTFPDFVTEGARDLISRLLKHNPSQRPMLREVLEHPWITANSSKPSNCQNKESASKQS
compound,measurement,setting,value
CNC(=O)c1cc(Oc2ccc(NC(=O)c3cccc(OC)c3)cc2)ccn1 [YLT192],inhibition at 1 µM,EGFR,1 ± 6%
same,inhibition at 1 µM,CDK2/cyclinE,-9 ± 3%
same,inhibition at 1 µM,FGFR2,19 ± 4%
same,inhibition at 1 µM,PDGFRβ,7 ± 8%
same,inhibition at 1 µM,Aurora-B,23 ± 5%
same,inhibition at 1 µM,JAK3,-7 ± 4%
same,inhibition at 1 µM,PDGFRα,5 ± 3%
same,inhibition at 1 µM,Aurora-A,-1 ± 4%
same,inhibition at 1 µM,IR,3 ± 3%
same,inhibition at 1 µM,FGFR1,21 ± 3%
same,inhibition at 1 µM,Axl,-7 ± 7%
same,inhibition at 1 µM,LCK,3 ± 6%
same,inhibition at 1 µM,c-RAF,3 ± 3%
same,inhibition at 1 µM,ALK,-4 ± 3%
same,inhibition at 1 µM,PKA,-10 ± 4%
same,inhibition at 1 µM,GSK3β,4 ± 6%
same,reduction of accumulation of FITC-dextran,[1],66%
same,IC50,COLO-205,23 ± 1.5 µM
same,"adverse effects, such as diarrhea or toxic death",[2],did not observed adverse effects
same,"microscopic examination of the heart, liver, spleen, lung, and kidney",[2],no pathological changes
